# Results from patent US9029544B2, “Tricyclic pyridine derivatives, medicaments containing such compounds, their use and process for their preparation” (Boehringer Ingelheim International GmbH, priority 2010, dated 2015).
# Target: T1, Recombinant human CETP (Homo sapiens, UniProt P11597)
# T1 construct: made in house; host or cells: CHO cells (secreted into conditioned medium)
# T1 sequence (P11597 18-493): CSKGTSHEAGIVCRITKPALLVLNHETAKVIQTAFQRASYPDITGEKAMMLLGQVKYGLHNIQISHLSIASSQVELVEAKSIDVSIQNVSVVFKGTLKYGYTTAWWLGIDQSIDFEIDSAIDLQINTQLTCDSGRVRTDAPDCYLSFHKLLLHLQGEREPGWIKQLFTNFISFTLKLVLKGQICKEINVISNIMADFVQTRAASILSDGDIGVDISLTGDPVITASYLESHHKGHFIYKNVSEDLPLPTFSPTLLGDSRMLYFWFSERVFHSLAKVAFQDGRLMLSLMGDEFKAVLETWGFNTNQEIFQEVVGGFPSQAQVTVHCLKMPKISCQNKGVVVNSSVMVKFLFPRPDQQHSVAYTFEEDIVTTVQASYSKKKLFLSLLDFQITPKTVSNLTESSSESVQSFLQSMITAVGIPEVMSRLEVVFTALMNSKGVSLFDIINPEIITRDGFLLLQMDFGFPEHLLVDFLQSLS
# Assay: CETP in vitro assay (fluorometric assay, Roar Biomedical; cholesterol ester transfer from HDL to LDL)
# Assay type: biochemical
# Conditions: recombinant human CETP from CHO cells; 3 hours at 37° C.; fluorescence 485/535 nm; compound concentrations between 1 nM and 30 μM; read-out: IC50 values for inhibition of CETP
# Description: CETP inhibitory activity of compounds of the present invention can be determined in a fluorometric assay purchased from Roar Biomedical, Inc. (New York, N.Y., USA). […] Recombinant human CETP was partially purified from medium conditioned by CETP expressing CHO cells. In a 384 well format 2.5 μl of compound solution in DMSO was combined with 2 μl of donor solution, 2 μl of acceptor solution and 0.8 μl of recombinant human CETP solution in a total volume of 100 μl with assay buffer and incubated for 3 hours at 37° C. The fluorescence intensity was measured at excitation wavelength of 485 nm and emission wavelength of 535 nm. IC50 values are calculated from dose effect curves from compound concentrations between 1 nM and 30 μM.
row,Structure (SMILES),IC50 [nM]
1,"CC(C)c1nc2c(c3c1[C@H](c1ccc(C(F)(F)F)cc1)OC31CCCC1)[C@H](O)CC(C)(C)C2 (single isomer, unassigned) [2 (Diastereomer 1), (3′S,9′R)-4′-isopropyl-7′,7′-dimethyl-3′-(4-(trifluoromethyl)phenyl)-6′,7′,8′,9′-tetrahydro-3′H-spiro[cyclopentane-1,1′-furo[3,4-c]quinolin]-9′-ol]",699
2,"CC(C)c1nc2c(c3c1[C@@H](c1ccc(C(F)(F)F)cn1)OC31CCC(F)(F)CC1)[C@@H](O)CC(C)(C)C2 (single isomer, unassigned) [7 (Diastereomer 1), (3′S,9′S)-4,4-difluoro-4′-isopropyl-7′,7′-dimethyl-3′-(5-(trifluoromethyl)pyridin-2-yl)-6′,7′,8′,9′-tetrahydro-3′H-spiro[cyclohexane-1,1′-furo[3,4-c]quinolin]-9′-ol]",193
3,"CC(C)c1nc2c(c3c1[C@H](c1ccc(C(F)(F)F)cn1)OC31CCC(F)(F)CC1)[C@@H](O)CC(C)(C)C2 (single isomer, unassigned) [7 (Diastereomer 2), (3′R,9′S)-4,4-difluoro-4′-isopropyl-7′,7′-dimethyl-3′-(5-(trifluoromethyl)pyridin-2-yl)-6′,7′,8′,9′-tetrahydro-3′H-spiro[cyclohexane-1,1′-furo[3,4-c]quinolin]-9′-ol]",1150
4,"CC(=O)O[C@H]1c2nc(C(C)C)c3c(c2[C@@H](O)CC1(C)C)C1(CCCC1)O[C@@H]3c1ccc(C(F)(F)F)nc1 [1(46), (3′R,6′R,9′S)-9′-hydroxy-4′-isopropyl-7′,7′-dimethyl-3′-(6-(trifluoromethyl)pyridin-3-yl)-6′,7′,8′,9′-tetrahydro-3′H-spiro[cyclopentane-1,1′-furo[3,4-c]quinoline]-6′-yl acetate]",1830
5,"CC(C)c1nc2c(c3c1[C@@H](c1ccc(C(F)(F)F)nc1)OC31CCOCC1)[C@@H](O)CC(C)(C)C2 [1(47), (3R,9S)-4-isopropyl-7,7-dimethyl-3-(6-(trifluoromethyl)pyridin-3-yl)-2′,3′,5′,6,6′,7,8,9-octahydro-3H-spiro[furo[3,4-c]quinoline-1,4′-pyran]-9-ol]",136
6,"CC(=O)O[C@H]1c2nc(C(C)C)c3c(c2[C@@H](O)CC1(C)C)C1(CCOCC1)O[C@@H]3c1ccc(C(F)(F)F)cc1 [1(48), (3R,6R,9S)-9-hydroxy-4-isopropyl-7,7-dimethyl-3-(4-(trifluoromethyl)phenyl)-2′,3′,5′,6,6′,7,8,9-octahydro-3H-spiro[furo[3,4-c]quinoline-1,4′-pyran]-6-yl acetate]",142
7,"CC(C)c1nc2c(c3c1[C@@H](c1ccc(C(F)(F)F)nc1)OC31CCOCC1)[C@@H](O)CC1(CCC1)C2 [1(52), (3R,9S)-4-isopropyl-7,7-(propan-1,3-diyl)-3-(6-(trifluoromethyl)pyridin-3-yl)-2′,3′,5′,6,6′,7,8,9-octahydro-3H-spiro[furo[3,4-c]quinoline-1,4′-pyran]-9-ol]",54
8,"CC(C)c1nc2c(c3c1[C@H](c1ccc(C(F)(F)F)c(F)c1)OC31CCOCC1)[C@@H](O)CC(C)(C)C2 [1(54), (3S,9S)-3-(3-fluoro-4-(trifluoromethyl)phenyl)-4-isopropyl-7,7-dimethyl-2′,3′,5′,6,6′,7,8,9-octahydro-3H-spiro[furo[3,4-c]quinoline-1,4′-pyran]-9-ol]",1690
9,"Cc1nc([C@H]2OC3(CCOCC3)c3c2c(C(C)C)nc2c3[C@@H](O)CC(C)(C)C2)sc1C(C)(C)C [1(56), (3S,9S)-3-(5-tert-butyl-4-methylthiazol-2-yl)-4-isopropyl-7,7-dimethyl-2′,3′,5′,6,6′,7,8,9-octahydro-3H-spiro[furo[3,4-c]quinoline-1,4′-pyran]-9-ol]",470
10,"CC(C)c1nc2c(c3c1[C@@H](c1ccc(C(F)(F)F)cc1)OC31CCOCC1)[C@@H](O)CC1(CCCC1)C2 [1(57), (3R,9S)-4-isopropyl-7,7-(butan-1,4-diyl)-3-(4-(trifluoromethyl)phenyl)-2′,3′,5′,6,6′,7,8,9-octahydro-3H-spiro[furo[3,4-c]quinoline-1,4′-pyran]-9-ol]",82
11,"CC(C)c1nc2c(c3c1[C@@H](c1ccc(OC(C)(C)C)cc1)OC31CCOCC1)[C@@H](O)CC(C)(C)C2 [1(58), (3R,9S)-3-(4-tert-butoxyphenyl)-4-isopropyl-7,7-dimethyl-2′,3′,5′,6,6′,7,8,9-octahydro-3H-spiro[furo[3,4-c]quinoline-1,4′-pyran]-9-ol]",88
12,"CC(C)Oc1ccc([C@H]2OC3(CCOCC3)c3c2c(C(C)C)nc2c3[C@@H](O)CC(C)(C)C2)cc1 [1(59), (3R,9S)-3-(4-isopropoxyphenyl)-4-isopropyl-7,7-dimethyl-2′,3′,5′,6,6′,7,8,9-octahydro-3H-spiro[furo[3,4-c]quinoline-1,4′-pyran]-9-ol]",245
13,"C=C(C)c1ccc([C@H]2OC3(CCCC3)c3c2c(C(C)C)nc2c3[C@@H](O)CC(C)(C)C2)cc1 [1(60), (3′R,9′S)-4′-isopropyl-7′,7′-dimethyl-3′-(4-(prop-1-en-2-yl)phenyl)-6′,7′,8′,9′-tetrahydro-3′H-spiro[cyclopentane-1,1′-furo[3,4-c]quinolin]-9′-ol]",44
14,"CC1(C)Cc2nc(C3CCOCC3)c3c(c2[C@@H](O)C1)C1(CCOCC1)O[C@@H]3c1ccc(S(F)(F)(F)(F)F)cc1 [1(61), (3R,9S)-7,7-dimethyl-4-(tetrahydro-2H-pyran-4-yl)-3-(4-(pentafluorosulfanyl)phenyl)-2′,3′,5′,6,6′,7,8,9-octahydro-3H-spiro[furo[3,4-c]quinoline-1,4′-pyran]-9-ol]",66
15,"CC(C)c1nc2c(c3c1[C@@H](c1ccc(C4(C)COC4)cc1)OC31CCOCC1)[C@@H](O)CC(C)(C)C2 [1(64), (3R,9S)-4-isopropyl-7,7-dimethyl-3-(4-(3-methyloxetan-3-yl)phenyl)-2′,3′,5′,6,6′,7,8,9-octahydro-3H-spiro[furo[3,4-c]quinoline-1,4′-pyran]-9-ol]",86
16,"CC(C)c1nc2c(c3c1[C@@H](c1ccc(C(F)(F)C(F)(F)F)cc1)OC31CCCC1)[C@@H](O)CC(C)(C)C2 [1(65), (3′R,9′S)-4′-isopropyl-7′,7′-dimethyl-3′-(4-(perfluoroethyl)phenyl)-6′,7′,8′,9′-tetrahydro-3′H-spiro[cyclopentane-1,1′-furo[3,4-c]quinolin]-9′-ol]",83

# Stronger by IC50, values ahead:
row,IC50 [nM],Structure (SMILES)
1,37,"CC(C)c1nc2c(c3c1[C@@H](c1ccc(C(F)(F)F)cn1)OC31CCOCC1)[C@@H](O)CC1(CCC1)C2 [1(49), (3S,9S)-4-isopropyl-7,7-(propan-1,3-diyl)-3-(5-(trifluoromethyl)pyridin-2-yl)-2′,3′,5′,6,6′,7,8,9-octahydro-3H-spiro[furo[3,4-c]quinoline-1,4′-pyran]-9-ol]"
2,26,"CC(C)c1nc2c(c3c1[C@@H](c1ccc(C(F)(F)F)cc1F)OC31CCOCC1)[C@@H](O)CC(C)(C)C2 [1(55), (3S,9S)-3-(2-fluoro-4-(trifluoromethyl)phenyl)-4-isopropyl-7,7-dimethyl-2′,3′,5′,6,6′,7,8,9-octahydro-3H-spiro[furo[3,4-c]quinoline-1,4′-pyran]-9-ol]"
3,23,"CC(C)c1nc2c(c3c1[C@@H](c1ccc(C(F)(F)F)c(F)c1)OC31CCOCC1)[C@@H](O)CC(C)(C)C2 [1(53), (3R,9S)-3-(3-fluoro-4-(trifluoromethyl)phenyl)-4-isopropyl-7,7-dimethyl-2′,3′,5′,6,6′,7,8,9-octahydro-3H-spiro[furo[3,4-c]quinoline-1,4′-pyran]-9-ol]"
4,21,"CC(C)c1nc2c(c3c1[C@@H](c1ccc(C(C)(C)C)cc1)OC31CCCC1)[C@@H](O)CC1(CCC1)C2 [1(62), (3′R,9′S)-3′-(4-tert-butylphenyl)-4′-isopropyl-7′,7′-(propan-1,3-diyl)-6′,7′,8′,9′-tetrahydro-3′H-spiro[cyclopentane-1,1′-furo[3,4-c]quinolin]-9′-ol]"
5,13,"CC(C)c1nc2c(c3c1[C@@H](c1ccc(C(F)(F)F)cc1F)OC31CCOCC1)[C@@H](O)CC1(CCC1)C2 [1(51), (3S,9S)-3-(2-fluoro-4-(trifluoromethyl)phenyl)-4-isopropyl-7,7-(propan-1,3-diyl)-2′,3′,5′,6,6′,7,8,9-octahydro-3H-spiro[furo[3,4-c]quinoline-1,4′-pyran]-9-ol]"
6,7,"CC(C)c1nc2c(c3c1[C@@H](c1ccc(C(F)(F)F)cc1)OC31CCOCC1)[C@@H](O)CC1(CCC1)C2 [1(50), (3R,9S)-4-isopropyl-7,7-(propan-1,3-diyl)-3-(4-(trifluoromethyl)phenyl)-2′,3′,5′,6,6′,7,8,9-octahydro-3H-spiro[furo[3,4-c]quinoline-1,4′-pyran]-9-ol]"
7,6,"CC(C)c1nc2c(c3c1[C@@H](c1ccc(C(C)(C)C)cc1)OC31CCOCC1)[C@@H](O)CC1(CCC1)C2 [1(63), (3R,9S)-3-(4-tert-butylphenyl)-4-isopropyl-7,7-(propan-1,3-diyl)-2′,3′,5′,6,6′,7,8,9-octahydro-3H-spiro[furo[3,4-c]quinoline-1,4′-pyran]-9-ol]"
